Data taken from paper PMC12703428, “Development of Granzyme A Turn‐ON Fluorescent Activity‐Based Probes” (Chembiochem, 2025).
Square brackets hold non-standard residues; d marks the D form. Ends that are not written are not given here. Oic = O=C(O)[C@@H]1C[C@@H]2CCCC[C@@H]2N1; Tic = O=C(O)[C@@H]1Cc2ccccc2CN1

Target: T1, recombinant human GzmA (hGzmA) (Homo sapiens, UniProt P12544)
T1 construct: active, mature form; purchased Enzo Life Sciences ALX-201-118-C010
T1 sequence (P12544 29-262): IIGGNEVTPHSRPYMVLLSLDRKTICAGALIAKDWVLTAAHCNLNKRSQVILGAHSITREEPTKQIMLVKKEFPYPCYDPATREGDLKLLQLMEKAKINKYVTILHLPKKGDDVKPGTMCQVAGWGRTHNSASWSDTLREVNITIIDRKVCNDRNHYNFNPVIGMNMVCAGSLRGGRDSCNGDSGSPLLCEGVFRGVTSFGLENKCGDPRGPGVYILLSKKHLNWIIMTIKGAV
Test: In-gel fluorescence labeling of recombinant active hGzmA
Assay type: biochemical
Conditions: hGzmA 100 nM, 37 °C; for Labeling of recombinant hGzmA (in-gel Cy5 fluorescence): varying probe concentrations, 2 h, SDS-PAGE
Procedure: Figure 3 GzmA ABPs covalently and competitively label active human and mouse GzmA. […] Recombinant hGzmA (100 nM) was incubated with varying concentrations of each ABP at 37 °C. B) Competitive labeling of hGzmA. Recombinant hGzmA (100 nM) was preincubated with covalent inhibitors 1 or 2 (5 μM) for 2 h, followed by labeling with ABPs 3 –5 (50 nM) for 2 h at 37 °C. Note: Pro‐form of hGzmA (the first lane) is not effectively stained by SYPRO‐Ruby. C) Structure of qABP 6. D) Quenched natures of 5 and 6. […] F) Labeling of mGzmA (1 μM) with 5 and 6 (1 μM, 24 h, 37 °C). Protein samples were analyzed by SDS‐PAGE and in‐gel fluorescence scanning for Cy5 signal and SYPRO Ruby staining. […]
C. In-gel fluorescence imaging
For recombinant enzyme labeling, working solutions of hGzmA (purchased from R&D Systems, Cat. No. 2905-SE-010 for pro-from and Enzo Life Sciences, Cat. No.: ALX-201-118-C010 for active, mature form) were prepared by diluting a 12.6 µM stock in the following assay buffer: 50 […]
mM Tris, 100 mM NaCl, 5 mM CaCl2, 0.01% (v/v) Tween-20, pH 7.5. […]
In-gel fluorescence and
SYPRO-Ruby staining images were acquired on a Typhoon FLA9500 instrument, while western blot images were acquired on an AMHERST ImageQuant 800 instrument.
Conditions for probe/inhibitor treatment for in-gel fluorescence analysis: Inhibitors and probes were incubated with active (or pro-) GzmA followed by treatment with 4X SDS reducing sample buffer. Samples were then heated to 100 °C for 5 min, brought to room temperature, and centrifuged. 20 µL of each sample was loaded onto a 15% polyacrylamide gel, which was then subjected to electrophoresis followed by the acquisition of in-gel fluorescence images. GzmA labeling was confirmed by western blotting, while protein loading was confirmed with SYPRO-Ruby staining. Incubation conditions for each figure/experiment are described below:
Conditions for Figure 3A: For labeling comparison between 3, 4, and 5, 100 nM of human GzmA was incubated with various concentrations of each probe for 2 h at 37 °C. For time-dependent labeling, 50 nM of 5 was incubated with 100 nM of human GzmA at 37 °C for the specified durations. Final reaction volume for both was 20 µL.
Conditions for Figure 3B: 100 nM of human GzmA was incubated with DMSO or 5 µM of 1 or 2 for 2 h at 37 °C in Eppendorf tubes. 0.5 µL of a 2 µM solution of 3, 4, or 5 in DMSO was then spiked into the Eppendorf tube, yielding a final probe concentration of 50 nM. The solution was incubated for another 2 h at 37 °C. Final reaction volume was 20 µL.
Conditions for Figure 3E: 100 nM of human GzmA was incubated with various concentrations of 5 or 6, respectively, for 2 h at 37 °C. Final reaction volume was 20 µL.
Conditions for Figure 3F: 1 µM of mouse GzmA was incubated with 1 µM of 5 or 6, respectively, for 24 h at 37 °C. Final reaction volume was 20 µL.
Conditions for Figure 4A: 1 mg/mL of lysates was incubated with various concentrations of 5 or 6, respectively, for 1 h at 37 °C.
Conditions for Figure 4C: Various concentrations of probes 3-6 were incubated with 1x10^6 NK-92 cells for 2 h at 37 °C in a humidified incubator. Cells were centrifuged, washed with PBS (x2) and lysed with ~40 µL of ice-cold RIPA buffer. Lysates were collected, protein concentration was measured with PIERCE BCA protein assay and samples were analyzed with in-gel fluorescence and GzmA western blotting. […]
All flow cytometry data were collected on BD LSRFortessa and FACSymphony A5 Cell Analyzers and analyzed with FlowJo software. Briefly, cells were processed according to the intended protocols for each experiment. Thereafter, cells were pelleted, fixed in the dark for 20 min at room temperature (Fixation buffer: BioLegend #420801), and pelleted again by centrifugation. Fixed cells were then resuspended in 1x intracellular staining perm wash buffer (BioLegend #421002), followed by centrifugation two times. Fixed/Permeabilized cells were then resuspended in […]

Row | Substance | Labeling of recombinant hGzmA (in-gel Cy5 fluorescence) | Concentration and time dependence of labeling of active hGzmA (time course with 50 nM probe)
1 | [Tic]G[Oic]R [compound 6] | efficiently (and slightly more strongly than 5) labeled | –
2 | IGNR [compound 5] | efficiently label recombinant human GzmA (hGzmA) at submicromolar concentrations | concentration‐ and time‐dependent labeling
3 | GFFR [compound 7] | lower labeling efficiency for both hGzmA and mGzmA compared with probes 5 and 6 | –
